Here are results for 22 compounds from patent publication US20250034167A1, “HETEROCYCLIC COMPOUNDS AND METHODS OF USE” (AMGEN INC., priority 2021, published 2025).

Structures are written as SMILES. Where two headings read alike, the source gives them in different places.

A word on the IC50: it is the point on the concentration scale where inhibition reaches its midpoint.

The test system of test [1] is Phosphorylation of ERK1/2 in AsPC-1 cells. Briefly: Phospho-ERK1/2 MSD Assay. Format: cell-based. How it is done:
Sixteen hours prior to compound treatment, AsPC-1 cells were seeded in 96-well cell culture plates at a density of 25,000 cells/well and incubated at 37° C., 5% CO2. A compound dose-response titration was diluted in growth media, added to appropriate wells of a cell culture plate, and then incubated at 37° C., 5% CO2 for 2 hours.

Test [2] concerns the target His-tagged KRAS G12D protein (Homo sapiens, UniProt P01116, G12D). Briefly: biochemical.
Method: The plate was incubated for 30 minutes at room temperature. Biotinylated KRPep-2d substrate (Amgen) was diluted to nM in Assay Buffer and 2 μL was added to all wells and incubated for 1 hour at room temperature. Detection Reagent (0.4 nM LANCE Eu-W1024 Anti-6×His (Perkin Elmer AD0401), 5 nM streptavidin-d2 (Cisbio 610SADLA)) was prepared in Assay Buffer, then 4 µL was added to the plate and incubated for 1 hour at room temperature.
[3] abbreviates: Homo sapiens, ASPC1, 2 h, read-out: 2 h p-ERK (AsPC-1 cells), IC50, AsPC-1 cells, 2 h compound treatment.
The mark [4] stands for this setting: read-out: 2 h p-ERK (AsPC-1 cells), IC50, AsPC-1 cells, 2 h compound treatment.

His-tagged KRAS G12D protein, sequence (P01116 1-188 isoform P01116-2 G12D): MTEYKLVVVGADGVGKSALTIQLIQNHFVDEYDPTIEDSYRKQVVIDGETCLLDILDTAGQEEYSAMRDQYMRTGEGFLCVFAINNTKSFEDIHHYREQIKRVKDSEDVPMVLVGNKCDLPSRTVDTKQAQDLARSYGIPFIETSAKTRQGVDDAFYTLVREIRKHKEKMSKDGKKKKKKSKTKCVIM

Take `CCc1c(F)ccc2cc(O)cc(-c3ncc4c(N5CCCC[C@@H](NC(C)=O)C5)nc(OC[C@@]56CCCN5C[C@H](F)C6)nc4c3F)c12` [Example 133, N-((R)-1-(7-(8-Ethyl-7-fluoro-3-hydroxynaphthalen-1-yl)-8-fluoro-2-(((2R,7aS)-2-fluorotetrahydro-1H-pyrrolizin-7a(5H)-yl)methoxy)pyrido[4,3-d]pyrimidin-4-yl)azepan-3-yl)acetamide]: the concentration for half-maximal inhibition (IC50) in test [1] (setting [3]) worked out at 661 nM; in test [2] it was 2 nM.

`CCc1c(F)ccc2cc(O)cc(-c3ncc4c(N5CCCCC(S(N)(=O)=O)C5)nc(OC[C@@]56CCCN5C[C@H](F)C6)nc4c3F)c12` (stereo partly drawn) [Example 158, 1-(7-(8-Ethyl-7-fluoro-3-hydroxy-naphthalen-1-yl)-8-fluoro-2-(((2R,7aS)-2-fluorotetrahydro-1H-pyrrolizin-7a(5H)-yl)methoxy)pyrido[4,3-d]pyrimidin-4-yl)azepane-3-sulfonamide]: the IC50 in test [1] (setting [3]) came to 1420 nM; in test [2], 2 nM.

On to `CCc1c(F)ccc2cc(O)cc(-c3ncc4c(N5CC(C)CC(O)C5)nc(OC[C@@]56CCCN5C[C@H](F)C6)nc4c3F)c12` (mixture of isomers) [Example 96, rac-(3R,5S)-1-(7-(8-Ethyl-7-fluoro-3-hydroxynaphthalen-1-yl)-8-fluoro-2-(((2R,7aS)-2-fluorotetrahydro-1H-pyrrolizin-7a(5H)-yl)methoxy)pyrido[4,3-d]pyrimidin-4-yl)-5-methylpiperidin-3-ol], for which the half-inhibitory concentration (IC50) is 119 nM in test [1] (setting [3]) and 5 nM in test [2].

`CCc1c(F)ccc2cc(O)cc(-c3ncc4c(N5CCCC(F)(F)CC5)nc(OC[C@@]56CCCN5C[C@H](F)C6)nc4c3F)c12` [Example 149, 4-(4-(4,4-Difluoroazepan-1-yl)-8-fluoro-2-(((2R,7aS)-2-fluorotetrahydro-1H-pyrrolizin-7a(5H)-yl)methoxy)pyrido[4,3-d]pyrimidin-7-yl)-5-ethyl-6-fluoronaphthalen-2-ol]: the figures for the half-maximal inhibitory concentration (IC50) in test [1] (setting [3]) and in test [2] were 702 nM and 12 nM, respectively.

On to `CCc1c(F)ccc2cc(O)cc(-c3ncc4c(N5CCCC(C#N)CC5)nc(OC[C@@]56CCCN5C[C@H](F)C6)nc4c3F)c12` (single isomer, unassigned) [Example 54], for which the values for the 50% inhibitory concentration (IC50) in test [1] (setting [4]) and in test [2] were 116 nM and 3 nM, respectively.

In the case of `CCc1c(F)ccc2cc(O)cc(-c3ncc4c(N5CC6CC(O)C(C6)C5)nc(OC[C@@]56CCCN5C[C@H](F)C6)nc4c3F)c12` (single isomer, unassigned) [Example 24], the concentration for half-maximal inhibition (IC50) in test [1] (setting [4]) was determined as 14 nM; in test [2] it was 2 nM.

Take `CCc1c(F)ccc2cc(O)cc(-c3ncc4c(N5CCC[C@H]5C(N)=O)nc(OC[C@@]56CCCN5C[C@H](F)C6)nc4c3F)c12` [Example 4, (S)-1-(7-(8-Ethyl-7-fluoro-3-hydroxynaphthalen-1-yl)-8-fluoro-2-(((2R,7aS)-2-fluorotetrahydro-1H-pyrrolizin-7a(5H)-yl)methoxy)pyrido[4,3-d]pyrimidin-4-yl)pyrrolidine-2-carboxamide]: the 50% inhibitory concentration (IC50) was > 10000 nM in test [1] (setting [3]) and 21 nM in test [2].

As to `CCc1c(F)ccc2cc(O)cc(-c3ncc4c(N5CC(S(N)(=O)=O)C5)nc(OC[C@@]56CCCN5C[C@H](F)C6)nc4c3F)c12` [Example 87, 1-(7-(8-Ethyl-7-fluoro-3-hydroxynaphthalen-1-yl)-8-fluoro-2-(((2R,7aS)-2-fluorotetrahydro-1H-pyrrolizin-7a(5H)-yl)methoxy)pyrido[4,3-d]pyrimidin-4-yl)azetidine-3-sulfonamide], the figures for the IC50 in test [1] (setting [3]) and in test [2] were > 10000 nM and 63 nM, respectively.

On to `CCc1c(F)ccc2cc(O)cc(-c3ncc4c(N5CCC[C@H]6OCC[C@H]65)nc(OC[C@@]56CCCN5C[C@H](F)C6)nc4c3F)c12` (relative stereo) [Example 42, rel-5-Ethyl-6-fluoro-4-(8-fluoro-2-(((2R,7aS)-2-fluorotetrahydro-1H-pyrrolizin-7a(5H)-yl)methoxy)-4-((3aR,7aR)-hexahydrofuro[3,2-b]pyridin-4(2H)-yl)pyrido[4,3-d]pyrimidin-7-yl)naphthalen-2-ol], for which the figures for the IC50 in test [1] (setting [3]) and in test [2] were 810 nM and 38 nM, respectively.

On to `CCc1c(F)ccc2cc(O)cc(-c3ncc4c(N5CCC(S(N)(=O)=O)CC5)nc(OC[C@@]56CCCN5C[C@H](F)C6)nc4c3F)c12` [Example 85, 1-(7-(8-Ethyl-7-fluoro-3-hydroxynaphthalen-1-yl)-8-fluoro-2-(((2R,7aS)-2-fluorotetrahydro-1H-pyrrolizin-7a(5H)-yl)methoxy)pyrido[4,3-d]pyrimidin-4-yl)piperidine-4-sulfonamide], for which the IC50 in test [1] (setting [3]) is > 10000 nM; in test [2], 37 nM.

Regarding `CCc1c(F)ccc2cc(O)cc(-c3ncc4c(N5C[C@H](O)[C@@H](O)C5)nc(OC[C@@]56CCCN5C[C@H](F)C6)nc4c3F)c12` [Example 117, (3S,4S)-1-(7-(8-Ethyl-7-fluoro-3-hydroxynaphthalen-1-yl)-8-fluoro-2-(((2R,7aS)-2-fluorotetrahydro-1H-pyrrolizin-7a(5H)-yl)methoxy)pyrido[4,3-d]pyrimidin-4-yl)pyrrolidine-3,4-diol], the results for the IC50 in test [1] (setting [3]) and in test [2] were > 10000 nM and 9 nM, respectively.

`CCc1c(F)ccc2cc(O)cc(-c3ncc4c(N5C[C@@H](O)[C@@H](O)C5)nc(OC[C@@]56CCCN5C[C@H](F)C6)nc4c3F)c12` [Example 11, (3S,4R)-1-(7-(8-Ethyl-7-fluoro-3-hydroxynaphthalen-1-yl)-8-fluoro-2-(((2R,7aS)-2-fluorotetrahydro-1H-pyrrolizin-7a(5H)-yl)methoxy)pyrido[4,3-d]pyrimidin-4-yl)pyrrolidine-3,4-diol]: the concentration for half-maximal inhibition (IC50) in test [1] (setting [3]) is > 10000 nM; in test [2] it was 3 nM.

As for `CCc1c(F)ccc2cc(O)cc(-c3ncc4c(N5CCCC(O)(C(F)F)C5)nc(OC[C@@]56CCCN5C[C@H](F)C6)nc4c3F)c12` (single isomer, unassigned) [Example 39], the results for the half-inhibitory concentration (IC50) in test [1] (setting [4]) and in test [2] were 13 nM and 2 nM, respectively.

For `CCc1c(F)ccc2cc(O)cc(-c3ncc4c(N5CC[C@H](O)[C@H](O)C5)nc(OC[C@@]56CCCN5C[C@H](F)C6)nc4c3F)c12` (relative stereo) [Example 100, rel-(3R,4S)-1-(7-(8-Ethyl-7-fluoro-3-hydroxynaphthalen-1-yl)-8-fluoro-2-(((2R,7aS)-2-fluorotetrahydro-1H-pyrrolizin-7a(5H)-yl)methoxy)pyrido[4,3-d]pyrimidin-4-yl)piperidine-3,4-diol], the IC50 in test [1] (setting [3]) was 3700 nM; in test [2], 9 nM.

Turning to `C[C@@]1(O)CCCN(c2nc(OC[C@@]34CCCN3C[C@H](F)C4)nc3c(F)c(-c4cc(O)cc5ccccc45)ncc23)C1` [Example 60, (R)-1-(8-Fluoro-2-(((2R,7aS)-2-fluorotetrahydro-1H-pyrrolizin-7a(5H)-yl)methoxy)-7-(3-hydroxynaphthalen-1-yl)pyrido[4,3-d]pyrimidin-4-yl)-3-methylpiperidin-3-ol], the half-maximal inhibitory concentration (IC50) was 330 nM in test [1] (setting [3]) and 2 nM in test [2].

On to `C#Cc1cccc2cc(O)cc(-c3ncc4c(N5CC6CC(O)C(C6)C5)nc(OC[C@@]56CCCN5C[C@H](F)C6)nc4c3F)c12` (single isomer, unassigned) [Example 31], for which the concentration for half-maximal inhibition (IC50) in test [1] (setting [3]) came out at 32 nM; in test [2], 2 nM.

`CCc1c(F)ccc2cc(O)cc(-c3ncc4c(N5CC(C)CC(C(N)=O)C5)nc(OC[C@@]56CCCN5C[C@H](F)C6)nc4c3F)c12` (single isomer, unassigned) [Example 163]: the concentration for half-maximal inhibition (IC50) in test [1] (setting [4]) was found to be 2730 nM; in test [2], 11 nM.

For `CCc1c(F)ccc2cc(O)cc(-c3ncc4c(N5CCC=CC(O)C5)nc(OC[C@@]56CCCN5C[C@H](F)C6)nc4c3F)c12` (stereo partly drawn) [Example 135, 1-(7-(8-Ethyl-7-fluoro-3-hydroxynaphthalen-1-yl)-8-fluoro-2-(((2R,7aS)-2-fluorotetrahydro-1H-pyrrolizin-7a(5H)-yl)methoxy)pyrido[4,3-d]pyrimidin-4-yl)-2,3,6,7-tetrahydro-1H-azepin-3-ol], the IC50 in test [1] (setting [3]) was found to be 81 nM; in test [2], 1 nM.

Turning to `CCc1c(F)ccc2cc(O)cc(-c3ncc4c(N5CCC[C@@H](S(N)(=O)=O)C5)nc(OC[C@@]56CCCN5C[C@H](F)C6)nc4c3F)c12` [Example 1, (R)-1-(7-(8-Ethyl-7-fluoro-3-hydroxynaphthalen-1-yl)-8-fluoro-2-(((2R,7aS)-2-fluorotetrahydro-1H-pyrrolizin-7a(5H)-yl)methoxy)pyrido[4,3-d]pyrimidin-4-yl)piperidine-3-sulfonamide], the IC50 in test [1] (setting [3]) amounted to 165 nM; in test [2], 1 nM.

For the compound `CCc1c(F)ccc2cc(O)cc(-c3ncc4c(N5CC(O)CC(F)(F)C5)nc(OC[C@@]56CCCN5C[C@H](F)C6)nc4c3F)c12` (stereo partly drawn) [Example 118, 1-(7-(8-Ethyl-7-fluoro-3-hydroxynaphthalen-1-yl)-8-fluoro-2-(((2R,7aS)-2-fluorotetrahydro-1H-pyrrolizin-7a(5H)-yl)methoxy)pyrido[4,3-d]pyrimidin-4-yl)-5,5-difluoropiperidin-3-ol], the 50% inhibitory concentration (IC50) is 105 nM in test [1] (setting [3]) and 3 nM in test [2].

As to `CCc1c(F)ccc2cc(O)cc(-c3cc4nc(OC[C@@]56CCCN5C[C@H](F)C6)nc(N5CCC[C@@](C)(O)C5)c4cn3)c12` [Example 170, (R)-1-(7-(8-Ethyl-7-fluoro-3-hydroxynaphthalen-1-yl)-2-(((2R,7aS)-2-fluorotetrahydro-1H-pyrrolizin-7a(5H)-yl)methoxy)pyrido[4,3-d]pyrimidin-4-yl)-3-methyl-piperidin-3-ol], in test [1] (setting [3]), the 50% inhibitory concentration (IC50) amounted to 18 nM.

As for `CCc1c(F)ccc2cc(O)cc(-c3ncc4c(N5CCC[C@](C)(N)C5)nc(OC[C@@]56CCCN5C[C@H](F)C6)nc4c3F)c12` [Example 45, 4-(4-((S)-3-Amino-3-methylpiperidin-1-yl)-8-fluoro-2-(((2R,7aS)-2-fluorotetrahydro-1H-pyrrolizin-7a(5H)-yl)methoxy)pyrido[4,3-d]pyrimidin-7-yl)-5-ethyl-6-fluoronaphthalen-2-ol], the half-inhibitory concentration (IC50) in test [1] (setting [3]) worked out at 2960 nM.
